Experimental data from patent US7951530B2, “Cyclic maltosylmaltose, cyclic maltosymaltose-forming enzyme, their preparation and uses” (Kabushiki Kaisha Hayashibara Seibutsu Kagaku Kenkyujo, priority 2003, dated 2011).

Key:
Thermal stability of CMM = assay type: physicochemical; conditions: 7% (w/v) CMM, 120° C.; for Purity (%): HPLC
Procedure: A powdery hydrous crystalline CMM was dissolved in water for preparing an aqueous solution containing 7% (w/v) of CMM. Eight milliliters each of the resulting solution was pored into a glass tube, sealed closely, and then heated at 120° C. for 30 to 90 min. After cooling the solution, the degree of coloring of the solution was measured. Further, the purity of CMM in the solution was measured by HPLC. The degree of coloring was defined as an absorbance at 480 nm using a 1 cm-cell.

From the text for Pancreas α-amylase: 43, 23-29 (1990), the digestibility of CMM by salivary α-amylase, artificial gastric juice, pancreas amylase, and small intestinal enzymes were investigated using the powdery hydrous crystalline CMM, obtained by the method in Experiment 14.

With OC[C@H]1O[C@@H]2OC[C@H]3O[C@H](O[C@H]4[C@H](O)[C@@H](O)[C@@H](OC[C@H]5O[C@H](O[C@H]1[C@H](O)[C@H]2O)[C@H](O)[C@@H](O)[C@@H]5O)O[C@@H]4CO)[C@H](O)[C@@H](O)[C@@H]3O [CMM, cyclo{>6)-α-D-glucopyranosyl-(1>4)-α-D-glucopyranosyl-(1>6)-α-D-glucopyranosyl-(1>4)-α-D-glucopyranosyl-(1>}] the “Degradation rate (%)” value (Pancreas α-amylase) was 0%, the “Degree of coloring (A480 nm)” value (Thermal stability of CMM; heating time 0 min) was 0 and the “Purity (%)” value (Thermal stability of CMM; heating time 0 min) was 100%. For the same compound, the “Degree of coloring (A480 nm)” value (Thermal stability of CMM; heating time 30 min) was 0, the “Purity (%)” value (Thermal stability of CMM; heating time 30 min) was 100% and the “Degree of coloring (A480 nm)” value (Thermal stability of CMM; heating time 60 min) was 0. For the same compound, the “Purity (%)” value (Thermal stability of CMM; heating time 60 min) was 100%, the “Degree of coloring (A480 nm)” value (Thermal stability of CMM; heating time 90 min) was 0 and the “Purity (%)” value (Thermal stability of CMM; heating time 90 min) was 100%.
